Results published in ChEMBL document CHEMBL1201862, “PubChem BioAssay data set” (2004).
Activity calls are given as the source filed them.

Key:
Protein skinhead-1 = biological target: T1, Protein skinhead-1 (Caenorhabditis elegans, UniProt P34707); type: functional
T1 sequence (P34707 whole entry): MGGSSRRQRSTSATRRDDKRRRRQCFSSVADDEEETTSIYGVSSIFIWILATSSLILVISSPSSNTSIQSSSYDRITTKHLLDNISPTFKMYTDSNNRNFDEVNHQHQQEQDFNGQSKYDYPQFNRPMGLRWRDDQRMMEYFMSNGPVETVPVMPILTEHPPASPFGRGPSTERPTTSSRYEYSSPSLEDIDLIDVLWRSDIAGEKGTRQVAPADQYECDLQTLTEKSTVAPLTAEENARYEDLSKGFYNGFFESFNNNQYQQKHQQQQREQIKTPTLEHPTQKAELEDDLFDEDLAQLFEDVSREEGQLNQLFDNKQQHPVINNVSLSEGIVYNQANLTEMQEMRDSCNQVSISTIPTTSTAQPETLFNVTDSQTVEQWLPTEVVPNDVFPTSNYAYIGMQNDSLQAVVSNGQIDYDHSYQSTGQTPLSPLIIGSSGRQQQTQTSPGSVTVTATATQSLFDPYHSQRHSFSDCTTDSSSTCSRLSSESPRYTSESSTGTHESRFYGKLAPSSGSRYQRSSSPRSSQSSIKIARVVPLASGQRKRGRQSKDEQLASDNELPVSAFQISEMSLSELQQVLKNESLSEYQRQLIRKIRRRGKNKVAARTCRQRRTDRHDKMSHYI

Cytochrome P450 2C9 = Cytochrome P450 2C9 (Homo sapiens, UniProt P11712)
Cytochrome P450 2C9, sequence (P11712 whole entry): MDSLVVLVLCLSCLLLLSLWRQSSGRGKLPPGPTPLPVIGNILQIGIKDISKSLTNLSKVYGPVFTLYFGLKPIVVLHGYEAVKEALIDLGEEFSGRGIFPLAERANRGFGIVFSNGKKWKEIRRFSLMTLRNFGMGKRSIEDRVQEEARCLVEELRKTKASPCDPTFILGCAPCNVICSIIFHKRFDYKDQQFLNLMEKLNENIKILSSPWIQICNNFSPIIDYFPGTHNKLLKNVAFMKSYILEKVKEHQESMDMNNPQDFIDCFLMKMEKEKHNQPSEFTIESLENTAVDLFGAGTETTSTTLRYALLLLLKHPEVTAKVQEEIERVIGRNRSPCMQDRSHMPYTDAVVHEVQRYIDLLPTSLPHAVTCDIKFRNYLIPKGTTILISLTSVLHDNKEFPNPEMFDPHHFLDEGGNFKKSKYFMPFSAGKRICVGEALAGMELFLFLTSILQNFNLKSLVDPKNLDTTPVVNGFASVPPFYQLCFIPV

[1] = HepG2 cell cytotoxicity, dose response, cytotoxicity control for Shn3 inhibitor project, CellTiter-Glo, cherry-picked (AID 624134); type: functional, cell-based
[2] = control 3'UTR Renilla luciferase suppression, dose response, counter-screen for Shn3 inhibitor project, cell-based, Clone20-Shn3RL, cherry-picked (AID 624133); type: functional
[3] = Luminescence Cell-Based Dose Retest to Confirm Inhibitors of Cancer Stem Cells. [Related pubchem assays (depositor defined):AID2717, AID2721]; type: functional, Homo sapiens; conditions: Homo sapiens
[4] = Shn3 3'UTR reporter inhibitors, dose response, cell-based, Clone20 osteoblasts, firefly luciferase, cherry-picked (AID 624132); type: functional;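 further: firefly luciferase luminescence from reporter carrying the Shn3 3'UTR in osteoblasts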
Large T antigen = Large T antigen (Simian virus 40, UniProt P03070); type: functional, Betapolyomavirus macacae;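 further: Confirmatory-stage PubChem screen for compounds that inhibit SV40 T antigen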
Large T antigen, sequence (P03070 whole entry): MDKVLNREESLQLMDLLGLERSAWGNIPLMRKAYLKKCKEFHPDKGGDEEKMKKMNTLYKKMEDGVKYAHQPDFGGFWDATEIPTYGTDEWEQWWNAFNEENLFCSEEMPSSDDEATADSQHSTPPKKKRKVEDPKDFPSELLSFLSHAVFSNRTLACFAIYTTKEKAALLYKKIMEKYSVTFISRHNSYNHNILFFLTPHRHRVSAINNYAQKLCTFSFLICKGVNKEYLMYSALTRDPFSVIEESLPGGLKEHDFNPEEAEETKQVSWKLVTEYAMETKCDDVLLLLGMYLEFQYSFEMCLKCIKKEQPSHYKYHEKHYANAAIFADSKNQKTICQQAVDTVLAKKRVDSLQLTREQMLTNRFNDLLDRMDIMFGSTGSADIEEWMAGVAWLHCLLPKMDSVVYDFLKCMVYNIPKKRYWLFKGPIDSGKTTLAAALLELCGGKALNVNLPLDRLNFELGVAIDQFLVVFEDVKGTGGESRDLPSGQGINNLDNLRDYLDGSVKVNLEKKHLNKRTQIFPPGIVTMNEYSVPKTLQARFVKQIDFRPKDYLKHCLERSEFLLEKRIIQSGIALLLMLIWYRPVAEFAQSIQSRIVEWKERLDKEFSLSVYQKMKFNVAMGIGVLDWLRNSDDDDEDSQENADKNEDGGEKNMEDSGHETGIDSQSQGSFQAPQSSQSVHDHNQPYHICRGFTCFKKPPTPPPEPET

Protein RecA = biological target: T2, Protein RecA (Mycobacterium tuberculosis, UniProt P9WHJ3); assay: Fluorescence Cell-Free Homogeneous Dose Retest to Identify Inhibitors of RecA-Intein Splicing Activity. [Related pubchem assays (depositor defined):AID2097, AID2223, AID489010, AID492950]; type: functional
T2 sequence (P9WHJ3 whole entry): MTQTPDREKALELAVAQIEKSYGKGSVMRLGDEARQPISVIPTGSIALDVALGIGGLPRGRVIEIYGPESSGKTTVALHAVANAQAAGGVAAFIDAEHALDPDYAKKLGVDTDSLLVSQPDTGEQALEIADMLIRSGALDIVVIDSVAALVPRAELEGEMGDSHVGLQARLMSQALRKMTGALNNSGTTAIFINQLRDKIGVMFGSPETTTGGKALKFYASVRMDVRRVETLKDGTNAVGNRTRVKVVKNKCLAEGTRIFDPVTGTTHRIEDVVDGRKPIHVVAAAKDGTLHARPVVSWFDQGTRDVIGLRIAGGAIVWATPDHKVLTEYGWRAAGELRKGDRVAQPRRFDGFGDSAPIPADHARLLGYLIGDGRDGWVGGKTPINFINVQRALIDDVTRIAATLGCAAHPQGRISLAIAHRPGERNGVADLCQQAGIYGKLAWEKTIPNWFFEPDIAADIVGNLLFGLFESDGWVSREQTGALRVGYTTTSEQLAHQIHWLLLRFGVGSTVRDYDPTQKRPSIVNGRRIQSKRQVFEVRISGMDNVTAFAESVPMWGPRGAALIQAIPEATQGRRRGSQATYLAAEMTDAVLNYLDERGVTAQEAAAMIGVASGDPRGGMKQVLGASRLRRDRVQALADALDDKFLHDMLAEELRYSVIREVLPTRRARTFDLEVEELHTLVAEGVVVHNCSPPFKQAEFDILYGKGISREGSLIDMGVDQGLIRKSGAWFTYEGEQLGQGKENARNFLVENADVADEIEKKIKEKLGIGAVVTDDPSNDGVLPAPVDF

[5] = biological target: T3, Replicative DNA helicase DnaB (Mycobacterium tuberculosis, UniProt P9WMR3); assay: DnaB intein splicing inhibitors, dose response, biochemical, cell-free fluorescence (AID 449749); type: functional
T3 sequence (P9WMR3 whole entry): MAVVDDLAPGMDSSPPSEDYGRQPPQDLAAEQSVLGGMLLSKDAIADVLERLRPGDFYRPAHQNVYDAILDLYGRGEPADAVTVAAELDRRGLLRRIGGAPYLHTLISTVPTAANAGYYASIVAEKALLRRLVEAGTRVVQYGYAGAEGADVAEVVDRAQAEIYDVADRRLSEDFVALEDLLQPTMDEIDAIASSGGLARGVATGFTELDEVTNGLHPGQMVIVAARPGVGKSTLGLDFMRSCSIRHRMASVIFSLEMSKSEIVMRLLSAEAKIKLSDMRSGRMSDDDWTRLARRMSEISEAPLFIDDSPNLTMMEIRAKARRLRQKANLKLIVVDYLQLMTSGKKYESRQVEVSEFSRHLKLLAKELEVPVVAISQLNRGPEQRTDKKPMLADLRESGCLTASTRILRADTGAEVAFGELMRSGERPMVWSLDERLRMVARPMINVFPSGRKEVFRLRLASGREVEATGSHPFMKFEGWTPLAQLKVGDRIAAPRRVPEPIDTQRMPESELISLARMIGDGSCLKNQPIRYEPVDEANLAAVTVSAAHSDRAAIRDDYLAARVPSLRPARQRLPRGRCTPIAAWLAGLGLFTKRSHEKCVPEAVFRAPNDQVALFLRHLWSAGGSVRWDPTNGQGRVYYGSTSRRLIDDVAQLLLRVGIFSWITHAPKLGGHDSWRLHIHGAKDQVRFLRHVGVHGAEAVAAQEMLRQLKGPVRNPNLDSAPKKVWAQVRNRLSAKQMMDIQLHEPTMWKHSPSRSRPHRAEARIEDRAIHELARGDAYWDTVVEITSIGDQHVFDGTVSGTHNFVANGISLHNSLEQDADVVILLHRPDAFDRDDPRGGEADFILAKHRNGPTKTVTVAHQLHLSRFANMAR

[6] = inhibitors of intracellular T. cruzi replication, confirmation, NIH3T3 host cells, beta-gal luminescence (AID 2044); type: functional, cell-based;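 further: intracellular parasites grown in NIH/3T3 mouse fibroblasts as host cells; luminescent beta-galactosidase reporter signal from transgenic T. cruzi replicating inside host cells; inhibitors lower the luminescence signal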
[7] = cytotoxicity toward NIH3T3 fibroblasts, dose response, counter-screen, cell-based, ATP luminescence, mouse fibroblasts (AID 2010); type: functional; conditions: NIH3T3;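 further: cells exposed to compound for about 90 hours before reading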

CCOC(=O)Nc1nc(-c2ccc(Cl)cc2Cl)cs1
IC50 (Protein skinhead-1): 21.4 µM (active)

Cc1noc(C)c1-c1cc(NCc2cccnc2)ncn1
AC50 (Cytochrome P450 2C9): inconclusive

CC(=O)c1ccc(N2CCN(c3ccc(S(=O)(=O)NCCCN(C)C)cc3[N+](=O)[O-])CC2)cc1
AC50 [1]: 27.3 µM (active) | AC50 [2]: 36.7 µM (active) | AC50 [3]: 1.41 µM (active) | AC50 [4]: 3.78 µM (active)

O=C1c2ccccc2NC2(CCCCC2)N1c1ccc(O)cc1
IC50 (Large T antigen): 12.5 µM (active)

N#Cc1ccc(-c2nc3c4ccccc4ccn3c2Cc2ccccc2C(F)(F)F)cc1
IC50 (Protein skinhead-1): > 100 µM (inactive)

O=c1c2ccccc2nc2n1C(CSCc1ccc(Cl)cc1Cl)CS2 (stereo not given)
AC50 [1]: 46.2 µM (active) | AC50 [2]: 3.48 µM (active) | AC50 [4]: 1.45 µM (active)

C=CSc1sc(Cl)c(N2CCOCC2)c1[N+](=O)[O-]
EC50 (Protein RecA): 54.6 µM (active) | AC50 [5]: 11.1 µM (active)

COc1ccc2oc(C(F)(F)C(F)F)cc(=O)c2c1
IC50 (Protein skinhead-1): > 100 µM (inactive)

O=C1COc2ccccc2CN1
AC50 (Cytochrome P450 2C9): inconclusive

O=C(/N=C1/N=C2C=CC(Br)=CN2Cc2ccccc21)c1ccc([N+](=O)[O-])cc1[N+](=O)[O-]
EC50 [6]: 1.39 µM (active) | IC50 (Protein skinhead-1): 28.3 µM (active) | EC50 [7]: > 60 µM (not active)

CCc1ccc(NC(=O)C(=O)N/N=C(\C)CC(=O)Nc2ccccn2)cc1
EC50 (Protein RecA): > 380 µM (inactive) | AC50 [5]: > 380 µM (inactive)

Cc1onc(-c2ccccc2)c1-c1nc2cc(Cl)ccc2c(=O)o1
EC50 (Protein RecA): 158 µM (active) | AC50 [5]: 1.53 µM (active)

Nc1cnc(Nc2ccc(Br)cc2)nc1N
IC50 (Large T antigen): 22.3 µM (active)

COC(=O)C1=C(C)N=c2s/c(=C/c3cccs3)c(=O)n2C1c1ccc(F)cc1 (stereo not given)
IC50 (Protein skinhead-1): > 100 µM (inactive)

COc1ccc([N+](=O)[O-])cc1NC(=O)C(C)OC(=O)CSC(C)C(=O)Nc1cc(C)on1 (stereo not given)
IC50 (Protein skinhead-1): > 100 µM (inactive)
